Values joined by “and” are separate entries in the source; they are usually repeats but may differ in a detail not shown here. Equal entries are not always repeated. “Also recorded” adds a separate entry of the source.
Columns and labels:
[1] = Metabolism of DB844 in vervet monkey liver microsomes; type: in vitro ADME; settings: 10 µM DB844, 0.2 mg/ml male vervet monkey liver microsomes
Description: The metabolism of DB844 was investigated using liver microsomes, prepared from a male vervet monkey by XenoTech, LLC (Lenexa, KS), in the presence of NADPH as described previously with modifications. Briefly, incubation mixtures (1 ml at pH7.4, in triplicate) contained 10 µM DB844 and 0.2 mg/ml monkey liver microsomes. After a 5-min equilibration period at 37°C, reactions were initiated with the addition of NADPH. Aliquots (50 µl) of the reaction mixtures were removed at 0, 5, 10, 15, 30, 60, 90, and 120 min and mixed with 25 µl of ice-cold acetonitrile. The mixtures were centrifuged (10,000×g for 5 min at 4°C) and the supernatants were analyzed by HPLC/UV using the same method as previously described for DB289 [22]. […] DB844 and metabolites were quantified using a single-concentration calibration curve generated using synthetic standards.

[2] = system: Trypanosoma brucei rhodesiense KETRI 2537; test: Efficacy in vervet monkey model of second stage HAT; type: in vivo; settings: for TOC test at 300 days post last dose / EoT test at 1 day post last dose (trypanosomes in blood/CSF) / EoT test at 4 days post last dose (trypanosomes in blood/CSF): individual monkeys; for EoT test at 1 day post last dose (trypanosomes in blood/CSF) / EoT test at 4 days post last dose (trypanosomes in blood/CSF): Neg/Pos
Excerpt: A pleomorphic isolate, T.b rhodesiense KETRI 2537, a derivative of EATRO 1989 that was isolated from a patient in Uganda by direct inoculation of blood and lymph node aspirate into a monkey and later cryopreserved at KARI- TRC [18], was used. This isolate is the basis of the KETRI vervet monkey and mouse models and has been widely used for drug efficacy trials, [20].
Sixteen vervet monkeys in two groups of eight monkeys each (four males and four females) were used. After a 14-day baseline weight, clinical and haematology data collection period, the sixteen monkeys were infected by intravenous injection of approximately 10^4 trypanosomes diluted from infected blood of immuno-suppressed donor Swiss white mice. Parasitaemia post infection was determined by examination of wet film of ear prick blood and/or examination of buffy coat after centrifugation of blood collected in a heparinised capillary tube as described previously. Parasitaemia in wet film was estimated using the rapid matching method of Herbert and Lumsden. In addition, monkeys were confirmed to be in second stage disease by detection of trypanosomes in the CSF with or without elevated white cell counts above 5 cells/µl, [20], [21], [23]. At 28 days post infection (DPI), the animals were treated with DB844 via oral gavage at 5 mg/kg qd×10 days (group I, n = 8) or 6 mg/kg qd×14 days (group II, n = 8), utilising a dose volume of 1 ml/kg. The monkeys were examined for parasitaemia every day during drug treatment and then twice weekly until ≥300 days post dosing, at which point monkeys were considered cured if they remained clinically normal and parasite-free as determined below.

[3] = system: GVR35 CNS model of HAT; design: method as in PMID 19620327; settings: cited from earlier work
[4] = system: 1st stage experimental murine HAT infections; design: method as in PMID 19620327; settings: DB844 at 25 mg/kg; cited from earlier work
[5] = Toxicity study of 10-day oral DB844 regimens in uninfected monkeys
[6] = Pharmacokinetics (plasma and CSF) in infected monkeys after last DB844 dose
[7] = group I: DB844 5 mg/kg×10 days per os, 28–37 DPI, 5 mg/kg
[8] = group II: DB844 6 mg/kg×14 days per os, 28–41 DPI, 6 mg/kg
[9] = relapsed monkeys of both groups
[10] = uninfected monkeys, DB844 5 mg/kg×10 days orally, monkeys 572F, 582M
[11] = uninfected monkeys, DB844 10 mg/kg×10 days orally, monkeys 541F, 578M, 10 mg/kg
[12] = uninfected monkeys, DB844 10 mg/kg×10 days orally, monkeys 541F, 578M, parenthesis = days post first dose when observed, 10 mg/kg
[13] = vervet 578, 10 mg/kg×10 days orally, uninfected
[14] = plasma, after the 14th oral dose of DB844 at 6 mg/kg, n = 7, geometric mean, analyte = label

Question: Which “metabolites formed over a 120 min incubation period” value [1] does the source give for `CONC(=N)c1ccc(-c2ccc(-c3ccc(C(=N)NOC)cn3)o2)cc1` [DB844, N-methoxy-6-{5-[4-(N-methoxyamidino)phenyl]-furan-2-yl}-nicotinamidine] here?
Answer: at least seven

Question: And the half-life at 10 µM ([1]; pH 7.4, NADPH, 37°C, pH7.4, read-out: microsomal half-life)?
Answer: ~0.233 h

Question: What about the “EoT provisional cure rate at 4 days post dosing” value ([2]; both groups (5 mg/kg×10 days and 6 mg/kg×14 days)) of the same compound?
Answer: 100%

Question: What about the overall cure rate ([2]; both study groups) of the same compound?
Answer: approximately 40%

Question: What about the “trypanosomes in the blood or cerebrospinal fluid at end of treatment evaluation” value ([2]; four days post the last drug dose, any monkey) of the same compound?
Answer: not detected

Question: And the “TOC test at 300 days post last dose” value [2, 7]?
Answer: Cured; also recorded: Relapsed

Question: And the “EoT test at 1 day post last dose (trypanosomes in blood/CSF)” value [2, 7]?
Answer: Neg and Pos

Question: And the “EoT test at 4 days post last dose (trypanosomes in blood/CSF)” value [2, 7]?
Answer: neg and Neg

Question: And the “TOC test at 300 days post last dose” value [2, 8]?
Answer: Cured; also recorded: Relapsed

Question: What about the “EoT test at 4 days post last dose (trypanosomes in blood/CSF)” value ([2]; group II: DB844 6 mg/kg×14 days per os, 28–41 DPI) of the same compound?
Answer: Neg

Question: What about the “EoT test at 1 day post last dose (trypanosomes in blood/CSF)” value [2, 8] of the same compound?
Answer: Neg and Pos

Question: What about the “cure rate in the vervet monkey model of 2nd stage HAT” value ([2]; oral DB844, best of the two regimens) of the same compound?
Answer: up to 43%

Question: What about the “median (range) time to trypanosome recrudescence in CSF” value [2, 9] of the same compound?
Answer: 133 (35–322, n = 9) days and 133 days

Question: What about the “median (range) time to trypanosome recrudescence in blood” value [2, 9] of the same compound?
Answer: 261 (239–322, n = 3) days and 261 days

Question: And the “cure of 2nd stage experimental murine HAT infection” value ([3]; DB844 at 100 mg/kg)?
Answer: curative

Question: And the animals cured ([3]; mice, oral DB844 (100 mg/kg×5 days))?
Answer: 5/5

Question: And the “cure of 1st stage experimental murine HAT infection” value [4]?
Answer: curative

Question: What about the “monkeys in which no adverse clinical signs of toxicity were elicited” value ([5]; uninfected monkeys, 5 mg/kg/day orally for 10 days) of the same compound?
Answer: 2/2

Question: And the “monkeys with overt toxicity” value ([5]; uninfected monkeys, 10 mg/kg/day orally for 10 days)?
Answer: 1/2

Question: What about the “monkeys with overt toxicity” value ([5]; uninfected monkeys, 20 mg/kg/day orally (8 doses given)) of the same compound?
Answer: 2/2

Question: What about the “weight loss (maximum among adverse clinical events)” value ([5]; uninfected monkeys, 5, 10 or 20 mg/kg/day orally) of the same compound?
Answer: up to 10.5%

Question: What about the “Adverse clinical events: GIT changes” value [5, 10] of the same compound?
Answer: None

Question: What about the “Adverse clinical events: Jaundice” value [5, 10] of the same compound?
Answer: None

Question: And the “Adverse clinical events: Reduced feed intake” value [5, 10]?
Answer: None

Question: And the Daily doses completed [5, 10]?
Answer: 10/10

Question: And the “Euthanised due to toxicity” value [5, 10]?
Answer: No

Question: And the “% weight loss” value ([5]; uninfected monkeys, DB844 5 mg/kg×10 days orally, monkeys 572F, 582M, 5 mg/kg)?
Answer: 1.8% and 4.9%

Question: What about the Daily doses completed ([5]; uninfected monkeys, DB844 10 mg/kg×10 days orally, monkeys 541F, 578M) of the same compound?
Answer: 10/10

Question: And the “% weight loss” value [5, 11]?
Answer: 4.6% and 10.5%

Question: What about the “Adverse clinical events: Jaundice” value [5, 11] of the same compound?
Answer: None and yes

Question: What about the “Adverse clinical events: GIT changes” value [5, 12] of the same compound?
Answer: None and Yes (16)

Question: What about the “Adverse clinical events: Reduced feed intake” value [5, 12] of the same compound?
Answer: Yes (11); also recorded: Yes (14)

Question: And the “Euthanised due to toxicity” value ([5]; uninfected monkeys, DB844 10 mg/kg×10 days orally, monkeys 541F, 578M, parenthesis = days post first dose, 10 mg/kg)?
Answer: No and Yes (16)

Question: What about the “Adverse clinical events: Jaundice” value ([5]; uninfected monkeys, DB844 20 mg/kg×10 days orally, monkeys 543F, 606M) of the same compound?
Answer: yes

Question: And the “% weight loss” value ([5]; uninfected monkeys, DB844 20 mg/kg×10 days orally, monkeys 543F, 606M, 20 mg/kg)?
Answer: 9.1% and 6.5%

Question: And the Daily doses completed ([5]; uninfected monkeys, DB844 20 mg/kg×10 days orally, monkeys 543F, 606M, dosing withdrawn on overt toxicity)?
Answer: 8/10

Question: What about the “Adverse clinical events: GIT changes” value ([5]; uninfected monkeys, DB844 20 mg/kg×10 days orally, monkeys 543F, 606M, parenthesis = days post first dose when observed) of the same compound?
Answer: Yes (8)

Question: And the “Adverse clinical events: Reduced feed intake” value ([5]; uninfected monkeys, DB844 20 mg/kg×10 days orally, monkeys 543F, 606M, parenthesis = days post first dose when observed, 20 mg/kg)?
Answer: Yes (8); also recorded: Yes (9)

Question: And the “Euthanised due to toxicity” value ([5]; uninfected monkeys, DB844 20 mg/kg×10 days orally, monkeys 543F, 606M, parenthesis = days post first dose, 20 mg/kg)?
Answer: Yes (9); also recorded: Yes (10)

Question: What about the “monkeys in which the dose was well tolerated” value ([5]; uninfected monkeys, middle dose 10 mg/kg×10 days) of the same compound?
Answer: 1/2

Question: What about the “mean corpuscular volume (MCV) after rise from 76.6” value [5, 13] of the same compound?
Answer: 86.9 fL

Question: What about the “red cell distribution width (RDW) after rise from 15” value [5, 13] of the same compound?
Answer: 18.4

Question: What about the “rise in mean corpuscular volume (MCV)” value [5, 13] of the same compound?
Answer: 13%

Question: And the “rise in red cell distribution width (RDW)” value [5, 13]?
Answer: 23%

Question: What about the “detection in CSF after the 1 h post dose sample” value ([6]; after last dose of DB844 6 mg/kg×14 days) of the same compound?
Answer: not detected thereafter

Question: And the concentration at 1 h ([6]; monkey, CSF, oral, 6 mg/kg)?
Answer: 17 nM

Question: And the half-life ([6]; monkey, in vivo, po, 6 mg/kg)?
Answer: 5.8 h

Question: What about the CL/F ([6]; monkey, plasma, po, 6 mg/kg) of the same compound?
Answer: 167 mL/min/kg

Question: What about the half-life ([6]; monkey, plasma, po, 6 mg/kg) of the same compound?
Answer: 5.76 h

Question: And the Tmax ([6]; monkey, plasma, po, 6 mg/kg, Tmax, plasma, after the 14th oral dose of DB844 at 6 mg/kg, n = 7, median, analyte = label)?
Answer: 0.96 h

Question: And the Tmax ([6]; monkey, plasma, po, 6 mg/kg, time of peak plasma concentration, after the last (14th) dose of DB844 at 6 mg/kg, analyte = label)?
Answer: 1 h

Question: And the “AUC(0-∞)” value [6, 14]?
Answer: 70 nmol·days/L

Question: And the AUClast [6, 14]?
Answer: 68 nmol·days/L

— article PMC3404106, “Pharmacology of DB844, an Orally Active aza Analogue of Pafuramidine, in a Monkey Model of Second Stage Human African Trypanosomiasis” (PLoS Neglected Tropical Diseases, 2012)
